Assay results published in publication PMC6731595, “The anti-parasitic agent suramin and several of its analogues are inhibitors of the DNA binding protein Mcm10” (Open Biology, 2019).
Where two headings read alike, the source gives them in different places.

What was measured:
[1] = target: T1, Xenopus internal domain Mcm10 (xMcm10-ID) (Xenopus laevis, UniProt Q5EAW4); test: Fluorescence polarization HTS and dose-response assay, 5′-6FAM probe binding to xMcm10-ID; conditions: dose-response with repurchased or purchased compound
T1 construct: xMcm10-ID (amino acid residues 229 to 427); 6xHis (HRV 3C site) (N, cleaved yes); made in house; host or cells: E. coli BL21(DE3)
T1 sequence (Q5EAW4 229-427): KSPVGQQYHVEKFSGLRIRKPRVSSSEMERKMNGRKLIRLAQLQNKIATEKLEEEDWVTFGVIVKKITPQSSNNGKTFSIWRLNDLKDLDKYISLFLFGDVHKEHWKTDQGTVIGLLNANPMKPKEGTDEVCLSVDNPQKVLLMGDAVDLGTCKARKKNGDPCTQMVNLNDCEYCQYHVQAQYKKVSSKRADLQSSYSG
Experimental: (§1) A fluorescence polarization (FP) HTS assay was established to detect inhibitors of the binding of the 5′-6FAM 10-mer oligo probe to Mcm10. Test compounds dissolved in DMSO were added to 384-well plates (Corning 4514) using an Echo 550 acoustic dispenser (final DMSO 0.1%) to achieve a final single point screening concentration of 10 µM. Then 10 µl of 2× Xenopus internal domain Mcm10 (xMcm10-ID, final concentration 2 µM) in binding buffer (20 mM Tris HCl, 100 mM NaCl, 5% glycerol, and 0.01% triton, pH 7.5) was added using the Combi nL Multidrop dispenser. Finally, 10 µl of 2× 5′-6FAM DNA (final 12.5 nM) in binding buffer was added using the Multidrop. DMSO (0.1%, high signal) and probe only (low signal) controls were included on every plate. Plates were mixed for 2 min, incubated for 60 min at RT in the dark, and read on a CLARIOstar multimode plate reader (excitation: 482-16, emission: 530-40, dichroic filter: LP504).
(§2) The LOPAC pilot screen identified the sulfhydryl reagent 4-chloromercuribenzoic acid as an inhibitor in the fluorescence polarization (FP) assay. As there was no known Mcm10 inhibitor, 4-chloromercuribenzoic acid (30 μM) was used as a positive control on initial screening plates. Following the discovery of suramin as a Mcm10 inhibitor, suramin (7 μM) was used as a positive control on subsequent screening plates. To confirm activity, screening hits were tested in dose response experiments (8 concentrations in duplicate) using xMcm10-ID. Similar dose response experiments were conducted with suramin and its analogs to confirm activity for hMcm10-ID (1 μM) and xMcm10-FL (2 μM) and to determine selectivity relative to RPA70AB (0.4 μM). Saturation experiments for each protein were conducted using increasing concentrations of protein with a fixed probe concentration (12.5 nM). FP was measured in mP units, and ∆mP values for each well were calculated as the difference between the measured mP and the average of the “probe only” controls. […] The parallel and perpendicular mP values were also used to calculate total fluorescence intensity (TFI) determined by the sum of parallel mP + (2 x perpendicular mP). TFI was used to detect fluorescence interference by compounds [1]. […] IC50 values were calculated using the four parameter logistic equation in Prism 6.0 (GraphPad). Ki values were obtained using an online Ki calculator according to the equations of Nikolovska-Coleska (http://sw16.im.med.umich.edu/soft-ware/calc_ki/). KD values were calculated using the one site or two site binding equations in Prism 6.0 (GraphPad).

[2] = system: DNA replication of sperm chromatin in Xenopus egg extracts; test: In vitro DNA replication assay in Xenopus S-phase egg extracts ([α-32P]dGTP incorporation); assay type: biochemical; conditions: 10, 50, 150 and 300 µM
Experimental: Xenopus egg extracts were prepared according to the method of Murray. Replication of sperm chromatin in S-phase egg extracts was monitored as previously described. Compounds identified by HTS were added to replication reactions immediately prior to addition of [α-^32P]dGTP (Perkin Elmer BLU514H250UC).
To determine whether the four remaining confirmed HTS hits affected DNA replication, in vitro replication assays were performed using Xenopus S-phase egg extracts incubated with sperm chromatin [25, 34]. DNA replication was measured in the presence of bronopol, fumarprotocetraric acid, iriginol and suramin or DMSO by the incorporation of [α-^32P]dGTP. […] For this reason, further studies focused on suramin alone.
Figure 1. Suramin inhibits DNA replication in an in vitro Xenopus replication assay. HTS hits were evaluated for inhibition of [α-^32P]dGTP incorporation into DNA using a cell-free extract prepared from Xenopus eggs at increasing concentrations (10, 50, 150 and 300 µM indicated by black triangle from right to left). No chemical (–) and DMSO were used as negative controls for replication inhibition (far left and far right lanes).

[3] = target: T2, human Mcm10 internal domain (hMcm10-ID) (Homo sapiens, UniProt Q7L590); test: Fluorescence polarization competition assay, displacement of 5′-6FAM 10-mer ssDNA probe from hMcm10-ID; assay type: binding; conditions: mean ± s.e.m., n ≥ 3; hMcm10-ID 1 μM, probe 12.5 nM
T2 construct: hMcm10-ID (residues 237 to 436) were expressed in E. coli strain BL21(DE3); 6xHis (HRV 3C site) (N, cleaved yes); made in house; host or cells: E. coli BL21(DE3)
T2 sequence (Q7L590 237-436): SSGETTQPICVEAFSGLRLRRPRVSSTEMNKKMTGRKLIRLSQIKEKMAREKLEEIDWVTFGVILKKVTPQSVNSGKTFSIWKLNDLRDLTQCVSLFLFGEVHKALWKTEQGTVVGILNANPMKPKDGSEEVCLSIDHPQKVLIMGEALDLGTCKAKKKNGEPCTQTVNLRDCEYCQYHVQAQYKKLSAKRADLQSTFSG
Experimental: as §1, §2

[4] = target: T3, full-length Xenopus Mcm10 (xMcm10-FL) (Xenopus laevis, UniProt Q5EAW4); test: Fluorescence polarization competition assay, displacement of 5′-6FAM ssDNA probe from xMcm10-FL; assay type: binding; conditions: averages of n = 2; xMcm10-FL 2 μM
T3 construct: The full-length xMcm10 was expressed with MBP fused onto the N-terminus and 6x-His tag attached to the C-terminus; 6xHis (C); made in house; host or cells: E. coli BL21(DE3), as for the ID constructs ('as described above')
T3 sequence (Q5EAW4 1-860): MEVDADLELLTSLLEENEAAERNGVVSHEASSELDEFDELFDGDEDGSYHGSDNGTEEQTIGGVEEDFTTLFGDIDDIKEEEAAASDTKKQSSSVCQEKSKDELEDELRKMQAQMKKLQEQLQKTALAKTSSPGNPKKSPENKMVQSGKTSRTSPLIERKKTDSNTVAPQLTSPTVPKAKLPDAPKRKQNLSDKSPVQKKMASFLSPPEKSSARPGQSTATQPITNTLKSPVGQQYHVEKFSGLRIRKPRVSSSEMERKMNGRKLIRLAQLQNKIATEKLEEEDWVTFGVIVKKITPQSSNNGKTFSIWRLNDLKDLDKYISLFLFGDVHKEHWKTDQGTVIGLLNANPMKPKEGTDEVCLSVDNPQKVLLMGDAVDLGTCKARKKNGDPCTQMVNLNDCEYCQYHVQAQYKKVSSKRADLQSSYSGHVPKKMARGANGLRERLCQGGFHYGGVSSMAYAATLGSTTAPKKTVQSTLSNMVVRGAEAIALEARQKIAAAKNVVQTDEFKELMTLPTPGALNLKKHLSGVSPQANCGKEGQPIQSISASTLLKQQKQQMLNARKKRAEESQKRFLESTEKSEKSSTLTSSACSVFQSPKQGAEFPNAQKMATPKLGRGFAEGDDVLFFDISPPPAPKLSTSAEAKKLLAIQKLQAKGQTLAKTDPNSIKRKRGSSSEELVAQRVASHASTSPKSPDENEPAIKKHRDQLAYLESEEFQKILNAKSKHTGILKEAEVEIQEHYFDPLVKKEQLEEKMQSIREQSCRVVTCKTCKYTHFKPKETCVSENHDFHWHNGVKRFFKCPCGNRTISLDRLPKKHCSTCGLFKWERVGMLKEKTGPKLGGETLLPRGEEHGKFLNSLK
Experimental: as §1, §2

[5] = target: T4, human RPA70AB (A and B DNA binding domains of RPA70) (Homo sapiens, UniProt P27694); test: Fluorescence polarization competition assay, displacement of 5′-6FAM ssDNA probe from RPA70AB; conditions: for Ki: mean ± s.e.m., n ≥ 3
T4 construct: recombinant human RPA70AB (181-422) in a pSV281 vector; 6xHis (TEV site) (N, cleaved yes); made in house; host or cells: Escherichia coli BL21(DE3)
T4 sequence (P27694 181-422): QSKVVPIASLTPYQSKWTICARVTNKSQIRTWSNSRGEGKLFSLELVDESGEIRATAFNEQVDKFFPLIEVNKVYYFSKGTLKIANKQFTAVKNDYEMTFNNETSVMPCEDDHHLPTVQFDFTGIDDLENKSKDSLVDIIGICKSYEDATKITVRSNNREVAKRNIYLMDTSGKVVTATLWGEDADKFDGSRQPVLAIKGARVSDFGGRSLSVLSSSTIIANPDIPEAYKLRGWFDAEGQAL
Experimental: as §1, §2

hMcm10-ID = target: T5, hMcm10-ID (Homo sapiens, UniProt Q7L590); test: Surface plasmon resonance binding kinetics on immobilized hMcm10-ID (Biacore S200)
T5 construct: hMcm10-ID (residues 237 to 436) were expressed in E. coli strain BL21(DE3); 6xHis (HRV 3C site) (N, cleaved yes); made in house; host or cells: E. coli BL21(DE3)
T5 sequence (Q7L590 237-436): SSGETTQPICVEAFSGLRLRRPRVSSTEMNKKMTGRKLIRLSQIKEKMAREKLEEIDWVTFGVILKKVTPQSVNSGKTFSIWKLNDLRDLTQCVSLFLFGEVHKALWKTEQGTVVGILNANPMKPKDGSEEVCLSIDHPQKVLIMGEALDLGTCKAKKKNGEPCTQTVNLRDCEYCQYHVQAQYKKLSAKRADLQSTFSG
Experimental: SPR experiments were performed using a Biacore S200 (GE Healthcare) equipped with a research-grade CM5 sensor chip. hMcm10-ID, at a concentration of 15 µg ml^−1 in 10 mM sodium acetate, pH 4.5, […], using an amine coupling kit (GE Healthcare) to either flow cell 2 or 4 following manufacturer directions. The reference flow cell (either flow cell 1 or 3) was left untreated. All compounds were dissolved in running buffer (10 mM PBS, 150 mM NaCl, 0.005% P20, pH 7.4) prior to injection over the chip surface at a flow rate of 30 µl min^−1 and at a temperature of 25°C. Zero concentration samples were injected for double referencing. Data were collected at a rate of 40 Hz and were fitted to a simple 1 : 1 interaction model (unless otherwise noted) using the global data analysis within the Biacore S200 evaluation software.

Ki [3]	Ki [4]	Ki ([5]; high-affinity component of biphasic displacement curve, read-out: fluorescence polarization hRPA70AB Ki1)	Ki ([5]; predominant low-affinity (or only) component, read-out: fluorescence polarization hRPA70AB Ki2)	selectivity RPA/ hMcm10 ([5]; ratio of hRPA70AB Ki2 to hMcm10-ID Ki (FP))	surface plasmon resonance hMcm10-ID kd (hMcm10-ID; 1:1 model, 6000–8000 RU, 25°C)	kon (hMcm10-ID; 1:1 model, 6000–8000 RU, 25°C, read-out: surface plasmon resonance hMcm10-ID ka)	Kd (hMcm10-ID; calculated from association and dissociation rate constants, 1:1 model, 6000–8000 RU, read-out: surface plasmon resonance hMcm10-ID kinetic KD)	SPR binding kinetics (description of sensorgrams) (hMcm10-ID; immobilized hMcm10-ID)	SMILES	inhibition of 5′-6FAM probe binding to xMcm10-ID (result in words) [1]	DNA replication, [α-32P]dGTP incorporation (result in words) [2]
–	–	–	–	–	–	–	–	–	CC(=O)Oc1cc(-c2coc3cc(OC(C)=O)c(OC(C)=O)c(OC(C)=O)c3c2=O)cc(OC(C)=O)c1OC(C)=O [iriginol hexaacetate]	active	only suramin exhibited a dose-dependent decrease in DNA replication
–	–	–	–	–	–	–	–	–	O=C(O)c1cc[c]([Hg][Cl])cc1 [4-chloromercuribenzoic acid]	active	–
2300 ± 100 nM	2900 nM	210 ± 40 nM	23000 ± 1000 nM	10	0.35 ± 0.19 s^−1	290000 ± 1.6e+10 M⁻¹ s⁻¹	1500 ± 200 nM	predominantly rapid kinetics	O=C(Nc1cc(C(=O)Nc2ccc(S(=O)(=O)O)cc2)cc(C(=O)Nc2ccc(S(=O)(=O)O)cc2)c1)Nc1cc(C(=O)Nc2ccc(S(=O)(=O)O)cc2)cc(C(=O)Nc2ccc(S(=O)(=O)O)cc2)c1 [NF110]	–	–
